Columns and labels:
Assay in all cases: Preservative/disinfectant system efficacy testing (log reduction)
Assay type in all cases: cell-based
[1] = test system: Fusarium solani (ATCC 36031)
Method: (§1) The ophthalmic compositions are evaluated in accordance with specific procedures outlined by the US Food & Drug Administration and the International Organization for Standardization for the testing of microbiocidal efficacy.

[2] = test system: Candida albicans (ATCC 10231)
Method: as §1

[3] = test system: Serratia marcescens (ATCC 13880)
Method: as §1

[4] = test system: Staphylococcus aureus (ATCC 6538)
Method: as §1

[5] = test system: Pseudomonas aeruginosa (ATCC 9027)
Method: as §1

[6] = 1 hr, Table 8A multi-purpose lens care formulation, disinfectant concentrations as in label
[7] = 1 hr, phosphate buffered saline, concentrations as in label (Table 7)
[8] = 4 hr, Table 8A multi-purpose lens care formulation, disinfectant concentrations as in label
[9] = 4 hr, phosphate buffered saline, concentrations as in label (Table 7)
[10] = 1 hr, Table 5A multi-purpose lens care solution, 10% organic soil, disinfectant concentrations as in label
[11] = 1 hr, phosphate buffered saline, 10% organic soil, concentrations as in label (Table 4)
[12] = 4 hr, Table 5A multi-purpose lens care solution, 10% organic soil, disinfectant concentrations as in label
[13] = 4 hr, phosphate buffered saline, 10% organic soil, concentrations as in label (Table 4)

Compound	log reduction F. solani [1, 6]	log reduction F. solani [1, 7]	log reduction F. solani [1, 8]	log reduction F. solani [1, 9]	log reduction C. albicans [2, 6]	log reduction C. albicans [2, 7]	log reduction C. albicans [2, 8]	log reduction C. albicans [2, 9]	log reduction S. marcescens [3, 6]	log reduction S. marcescens [3, 7]	log reduction S. marcescens [3, 8]	log reduction S. marcescens [3, 9]	log reduction S. aureus [4, 6]	log reduction S. aureus [4, 7]	log reduction S. aureus [4, 8]	log reduction S. aureus [4, 9]	log reduction P. aeruginosa [5, 6]	log reduction P. aeruginosa [5, 7]	log reduction P. aeruginosa [5, 8]	log reduction P. aeruginosa [5, 9]	further results
CCCCC(CC)CNCC(O)CO (stereo not drawn) [EHAPD, 3-[(2-ethylhexyl)amino]-1,2-propanediol]	2.4	2.3	4.8	5.2	2.4	>5.0	2.6	>5.0	2.7	3.3	3.2	3.8	1.2	1.4	1.2	1.4	1.2	1.4	1.3	1.4	–
CCCCC(CC)CNC(=N)NC(=N)NCCCCCCNC(=N)NC(=N)NCC(CC)CCCC (stereo not drawn) [alexidine, reference compound]	3.1	2.3	4.2	2.3	2.0	3.2	3.0	3.8	4.1	2.0	>5.2	3.5	3.3	1.4	3.8	1.4	3.5	1.6	3.9	2.3	log reduction F. solani [1, 10]: 3.1; log reduction F. solani [1, 11]: 2.3; log reduction F. solani [1, 12]: 4.2; log reduction F. solani [1, 13]: 2.3; log reduction C. albicans [2, 10]: 2.0; log reduction C. albicans [2, 11]: 3.2; log reduction C. albicans [2, 12]: 3.0; log reduction C. albicans [2, 13]: 3.8; log reduction S. marcescens [3, 10]: 4.1; log reduction S. marcescens [3, 11]: 2.0; log reduction S. marcescens [3, 12]: >5.2; log reduction S. marcescens [3, 13]: 3.5; log reduction S. aureus [4, 10]: 3.3; log reduction S. aureus [4, 11]: 1.4; log reduction S. aureus [4, 12]: 3.8; log reduction S. aureus [4, 13]: 1.4; log reduction P. aeruginosa [5, 10]: 3.5; log reduction P. aeruginosa [5, 11]: 1.6; log reduction P. aeruginosa [5, 12]: 3.9; log reduction P. aeruginosa [5, 13]: 2.3

Reference: US20070287752A1, “Ophthalmic Compositions Comprising A Branched, Glycerol Compound” (priority 2006, published 2007)
